Assay results taken from patent US8426459B2, “Composition of flavanolignan and amino acid with improved water solubility” (Agra Group, A.S., priority 2008, dated 2013).
Values after ≈ are worked out from the molar mass of the structure shown. Like-named read-outs stand apart in the source and are kept apart here.

Experiments:
[1] = aqueous solution, 25° C., cited from earlier work; for p I: pI = ½ (pK2 + pK3)
[2] = Solutions of amino acids in water easily prepared at room temperature; assay type: physicochemical
Source text: When dissolving the mixtures according to the invention in water it is necessary to take into consideration the different solubilities of the basic amino acids themselves.

[3] = Solubility of individual components of flavanolignans in the mixture according to Example 1; assay type: physicochemical; details: for solubility: read-out: Solubility of individual component in the mixture according to Example 1
Source text: Solubility of individual components of flavanolignans in the mixture according to Example 1

[4] = cited from earlier work
[5] = 25° C., cited from earlier work
[6] = Buffer solution pH 4.5 (Bates, sodium acetate and hydrochloric acid, ionic strength 0.05)

Compound | Solubility of individual component in the mixture according to Example 1 [3, 6] [µg/mL] | Solubility of individual component in the mixture according to Example 1 ([3]; Purified water) [µg/mL] | pKa.1 ([4]; 25° C.) | pKa.2 ([4]; 25° C.) | pKa.3 ([4]; 25° C.) | pKa.1 ([4]; 37° C.) | pKa.2 ([4]; 37° C.) | pKa.3 ([4]; 37° C.) | other results
N=C(N)NCCC[C@H](N)C(=O)O [L-arginine] | – | – | – | – | – | – | – | – | pK1 [1]: 2.01; pK2 [1]: 9.04; pK3 [1]: 12.48; p I [1]: 10.76
NCCCC[C@H](N)C(=O)O [L-lysine] | – | – | – | – | – | – | – | – | pK1 [1]: 2.18; pK2 [1]: 8.95; pK3 [1]: 10.53; p I [1]: 9.47; concentration of amino acid solution in water that can be easily prepared [2]: 1.0 M
COc1cc([C@H]2Oc3cc([C@H]4Oc5cc(O)cc(O)c5C(=O)[C@@H]4O)ccc3O[C@@H]2CO)ccc1O [Silybin A, silybin A] | 127.95 | 178.41 | – | – | – | – | – | – | –
COc1cc([C@@H]2Oc3cc([C@H]4Oc5cc(O)cc(O)c5C(=O)[C@@H]4O)ccc3O[C@H]2CO)ccc1O [Silybin B, silybin B] | 209.62 | 289.05 | – | – | – | – | – | – | –
COc1cc(C2Oc3cc([C@H]4Oc5cc(O)cc(O)c5C(=O)[C@@H]4O)ccc3OC2CO)ccc1O (stereo partly shown) [silybin] | – | – | 7.00 | pKa.2[25° C.] = 8.77; pKa.2[37° C.] = 8.77 | 9.57 | 6.86 | pKa.2[25° C.] = 8.77; pKa.2[37° C.] = 8.77 | 9.62 | solubility of silybin ([5]; Capryl-caprine triglyceride): 800 ± 500 µg/mL; solubility of silybin ([5]; Castor oil): 7100 ± 1200 µg/mL; solubility of silybin ([5]; Ethanol): 225200 ± 5200 µg/mL; solubility of silybin ([5]; Ethoxy diglycol): 350100 ± 10400 µg/mL; solubility of silybin ([5]; Ethyl linoleate): 2100 ± 800 µg/mL; solubility of silybin ([5]; Fish oil): 500 ± 200 µg/mL; solubility of silybin ([5]; Glyceryl monooleate): 33200 ± 2800 µg/mL; solubility of silybin ([5]; Polyethylene glycol 200): 345900 ± 9500 µg/mL; solubility of silybin ([5]; Polyethylene glycol 400/ethanol (1:1)): 342100 ± 7100 µg/mL; solubility of silybin ([5]; Propylene glycol): 162400 ± 3600 µg/mL; solubility of silybin ([5]; Tocopherol): 20000 ± 1900 µg/mL; solubility of silybin ([5]; Water): 400 ± 100 µg/mL
COc1cc([C@@H]2Oc3c(O)cc([C@H]4Oc5cc(O)cc(O)c5C(=O)[C@@H]4O)cc3[C@H]2CO)ccc1O [silychristin] | 241.57 | 258.24 | 6.52 | 7.22 | 8.96 | 6.62 | 7.41 | 8.94 | –
COc1cc([C@@H]2[C@H]3CO[C@@]4(O)C(=O)[C@@H]2C=C([C@H]2Oc5cc(O)cc(O)c5C(=O)[C@@H]2O)[C@@H]34)ccc1O [silydianin] | – | – | 6.64 | 7.78 | 9.66 | 7.10 | 8.93 | 10.06 | solubility ([3]; aqueous buffer, Buffer solution pH 4.5 (Bates, sodium acetate and hydrochloric acid, ionic strength 0.05)): 189 µg/mL (≈ 392 µM); solubility ([3]; purified water, water): 215 µg/mL (≈ 445 µM)
Isosylibin | 78.63 | 112.90 | – | – | – | – | – | – | –
